Assays:
Rat M4 = target: T1, Rat M4 (Rattus norvegicus, UniProt P08485); test: mAChR M4 cell-based functional calcium flux assay (rat M4/Gqi5/CHO cells); conditions: for Emin (rat M4): % ACh maximum at 30 μM
T1 construct: expressed in transfected cells; host or cells: CHO-K1 (ATCC), stably expressing M4 and Gqi5
T1 sequence (P08485 1-478): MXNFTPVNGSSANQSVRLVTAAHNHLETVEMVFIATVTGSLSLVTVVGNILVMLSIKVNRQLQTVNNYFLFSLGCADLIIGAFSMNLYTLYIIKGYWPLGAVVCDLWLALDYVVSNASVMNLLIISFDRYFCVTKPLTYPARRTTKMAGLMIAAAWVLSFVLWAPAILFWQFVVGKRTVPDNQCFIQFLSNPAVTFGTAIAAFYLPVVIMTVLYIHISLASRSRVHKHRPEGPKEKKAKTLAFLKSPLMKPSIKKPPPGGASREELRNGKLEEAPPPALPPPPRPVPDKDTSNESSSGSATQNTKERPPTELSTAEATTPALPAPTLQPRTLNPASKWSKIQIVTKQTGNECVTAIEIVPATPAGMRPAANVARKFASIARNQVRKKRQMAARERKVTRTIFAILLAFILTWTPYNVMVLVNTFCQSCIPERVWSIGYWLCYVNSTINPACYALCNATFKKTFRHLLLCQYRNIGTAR
Procedure: (§1) Human, rat, or mouse M4. cDNA, along with the chimeric G protein Gqi5, were transfected into Chinese hamster ovary (CHO-K1) cells purchased from the American Type Culture Collection using Lipofectamine2000. M4/Gqi5/CHO cells were grown in Ham's F-12 medium containing 10% heat-inactivated fetal bovine serum (FBS), 20 mM HEPES, 500 μg/mL G418 sulfate, and 200 μg/mL Hygromycin B.
(§2) For high throughput measurement of agonist-evoked increases in intracellular calcium, CHO-K1 cells stably expressing muscarinic receptors were plated in growth medium lacking G418 and hygromycin at 15,000 cells/20 μL/well in Greiner 384-well black-walled, tissue culture (TC)-treated, clear-bottom plates (VWR). Cells were incubated overnight at 37° C. and 5% CO2. The next day, cells were washed using an ELX 405 (BioTek) with assay buffer; the final volume was then aspirated to 20 μL. Next, 20 μL of a 2.3 μM stock of Fluo-4/acetoxymethyl ester (Invitrogen, Carlsbad, CA), prepared as a 2.3 mM stock in DMSO and mixed in a 1:1 ratio with 10% (w/v) Pluronic F-127 and diluted in assay buffer, was added to the wells and the cell plates were incubated for 50 min at 37° C. and 5% CO2. Dye was removed by washing with the ELX 405 and the final volume was aspirated to 20 μL. Compound master plates were formatted in a 10 point concentration-response curve (CRC) format (1:3 dilutions) in 100% DMSO with a starting concentration of 10 or 1 mM using a BRAVO liquid handler (Agilent). Test compound CRCs were then transferred to daughter plates (240 nL) using the Echo acoustic plate reformatter (Labcyte, Sunnyvale, CA) and then diluted into assay buffer (40 μL) to a 2× stock using a Thermo Fisher Combi (Thermo Fisher Scientific, Waltham, MA).
(§3) Calcium flux was measured using the Functional Drug Screening System (FDSS) 6000 or 7000 (Hamamatsu Corporation, Tokyo, Japan) as an increase in the fluorescent static ratio. Compounds were applied to cells (20 μL, 2×) using the automated system of the FDSS at 2 seconds into the protocol and the data were collected at 1 Hz. At 143 s, 10 μL of an EC20 concentration of the muscarinic receptor agonist acetylcholine was added (5×), followed by the addition of 12 μL of an EC80 concentration of acetylcholine at the 268 s time point (5×). Agonist activity was analyzed as a concentration-dependent increase in calcium mobilization upon compound addition. Positive allosteric modulator activity was analyzed as a concentration-dependent increase in the EC20 acetylcholine response. Antagonist activity was analyzed as a concentration-dependent decrease in the EC80 acetylcholine response; for the purposes of the tables herein, an IC50 (inhibitory concentration 50) was calculated as a concentration-dependent decrease of the response elicited by an EC80 concentration of acetylcholine. Concentration-response curves were generated using a four-parameter logistical equation in XLFit curve fitting software (IDBS, Bridgewater, NJ) for Excel (Microsoft, Redmond, WA) or Prism (GraphPad Software, Inc., San Diego, CA) or the Dotmatics software platform (Dotmatics, Bishop's Stortford, UK).
(§4) Compounds were synthesized as described above. Activity (IC50 and Emin) was determined in the mAChR M4 cell-based functional assay as described above and the data are shown in Table 2 and Table 3. The compound number corresponds to the compound numbers used in the examples and Tables 1 and 1.1.

Human M4 = target: T2, Human M4 (Homo sapiens, UniProt P08173); test: mAChR M4 cell-based functional calcium flux assay (human M4/Gqi5/CHO cells); conditions: for Emin (human M4): % ACh maximum at 30 μM; for IC50: decrease of the response to an EC80 concentration of acetylcholine
T2 construct: expressed in transfected cells; host or cells: CHO-K1 (ATCC), stably expressing M4 and Gqi5
T2 sequence (P08173 1-479): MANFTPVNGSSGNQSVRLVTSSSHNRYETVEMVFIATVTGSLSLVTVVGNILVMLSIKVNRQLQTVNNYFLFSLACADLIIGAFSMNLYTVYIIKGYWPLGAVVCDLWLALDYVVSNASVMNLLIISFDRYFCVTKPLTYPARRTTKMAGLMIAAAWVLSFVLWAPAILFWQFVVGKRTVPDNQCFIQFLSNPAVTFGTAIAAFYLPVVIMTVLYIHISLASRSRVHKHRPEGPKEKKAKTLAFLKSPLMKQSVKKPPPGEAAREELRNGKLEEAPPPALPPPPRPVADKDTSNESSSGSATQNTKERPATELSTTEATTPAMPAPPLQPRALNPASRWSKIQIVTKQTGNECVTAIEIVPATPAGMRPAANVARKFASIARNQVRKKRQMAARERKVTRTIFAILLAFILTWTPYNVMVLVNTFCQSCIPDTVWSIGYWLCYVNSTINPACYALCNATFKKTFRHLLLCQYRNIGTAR
Procedure: as §1, §2, §3, §4

[1] = decrease of the response to an EC80 concentration of acetylcholine
[2] = cells printed in μM, decrease of the EC80 acetylcholine response

Emin (rat M4) (Rat M4) [%]	IC50 (Rat M4; [1]) [µM]	Emin (human M4) (Human M4) [%]	IC50 (Human M4) [nM]	IC50 (Rat M4; [2]) [µM]	Structure (SMILES)
4	0.0563	4	34.3	–	CC(=O)Nc1ccc(-c2ccc(NC[C@H]3CC34CCN(CCC(C)(C)C)CC4)nn2)cc1 [Compound 124, N-[4-[6-[[(2S)-6-(3,3-dimethylbutyl)-6-azaspiro[2.5]octan-2-yl]methylamino]pyridazin-3-yl]phenyl]acetamide]
11.8	3.6	4.18	384	–	Cc1nn(C)cc1-c1ccc(NCC2CC23CCN(Cc2ccccc2)CC3)nn1 (centres unmarked) [Compound 58, N-[(6-benzyl-6-azaspiro[2.5]octan-2-yl)methyl]-6-(1,3-dimethylpyrazol-4-yl)pyridazin-3-amine]
22.7	–	6.29	2240	> 10	Cc1cnn(C)c1-c1ccc(NC(=O)C2CC23CCN(CC(C)C(C)(C)C)CC3)nn1 (centres unmarked) [Compound 7, N-[6-(2,4-dimethylpyrazol-3-yl)pyridazin-3-yl]-6-(2,3,3-trimethylbutyl)-6-azaspiro[2.5]octane-2-carboxamide]
4	0.0392	3	2.29	–	Fc1ccc(Cl)c(-c2ccc(NC[C@@H]3CC34CCN(CC3CC5CCC3O5)CC4)nn2)c1 (stereo partly drawn) [Compound 110, N-(((1R)-6-((7-oxabicyclo[2.2.1]heptan-2-yl)methyl)-6-azaspiro[2.5]octan-1-yl)methyl)-6-(2-chloro-5-fluorophenyl)pyridazin-3-amine]
4.67	0.404	3.25	169	–	Cc1nn(C)cc1-c1cnc(NCC2CC23CCN(CC(C)C(C)(C)C)CC3)cn1 (centres unmarked) [Compound 22, 5-(1,3-dimethylpyrazol-4-yl)-N-[[6-(2,3,3-trimethylbutyl)-6-azaspiro[2.5]octan-2-yl]methyl]pyrazin-2-amine]
4	0.0137	5	19.7	–	CC(=O)Nc1ccc(-c2nnc(NCC3CC34CCN(CC3CCCCC3)CC4)c(C)c2C)cc1 (centres unmarked) [Compound 117, N-[4-[6-[[6-(cyclohexylmethyl)-6-azaspiro[2.5]octan-2-yl]methylamino]-4,5-dimethyl-pyridazin-3-yl]phenyl]acetamide]
4.23	0.0593	3.00	5.29	–	Cc1noc(C)c1-c1ccc(NCC2CC23CCN(CCC(C)(C)C)CC3)nn1 (centres unmarked) [Compound 37, N-[[6-(3,3-dimethylbutyl)-6-azaspiro[2.5]octan-2-yl]methyl]-6-(3,5-dimethylisoxazol-4-yl)pyridazin-3-amine]
3.33	0.105	2.24	16	–	CC(C)(C)CCN1CCC2(CC1)CC2CNc1ccc(-c2cccc(F)c2Cl)nn1 (centres unmarked) [Compound 41, 6-(2-chloro-3-fluoro-phenyl)-N-[[6-(3,3-dimethylbutyl)-6-azaspiro[2.5]octan-2-yl]methyl]pyridazin-3-amine]
3.57	0.0478	–	–	–	Cc1nn(C)cc1-c1ccc(NCC2CC23CCN(CC(C)C(C)(C)C)CC3)nn1 (centres unmarked) [Compound 10, 6-(1,3-dimethylpyrazol-4-yl)-N-[[6-(2,3,3-trimethylbutyl)-6-azaspiro[2.5]octan-2-yl]methyl]pyridazin-3-amine]
29.9	–	–	–	> 10	Cc1cnn(C)c1-c1ccc(NCC2CC23CCN(CC2CCOCC2)CC3)nn1 (centres unmarked) [Compound 74, 6-(2,4-dimethylpyrazol-3-yl)-N-[[6-(tetrahydropyran-4-ylmethyl)-6-azaspiro[2.5]octan-2-yl]methyl]pyridazin-3-amine]
5	0.409	–	–	–	CC(C)(C)/C=C/c1ccc(NCC2CC23CCN(CCC(C)(C)C)CC3)nn1 (centres unmarked) [Compound 91, 6-[(E)-3,3-dimethylbut-1-enyl]-N-[[6-(3,3-dimethylbutyl)-6-azaspiro[2.5]octan-2-yl]methyl]pyridazin-3-amine]

Source: patent US12600726B2, “Antagonists of the muscarinic acetylcholine receptor M4” (Vanderbilt University, priority 2017, dated 2026)
